The text below walks through data of US20240058452A1, “PHARMACEUTICAL COMPOSITION CONTAINING TEMPERATURE-RESPONSIVE IONIC LIQUID” (priority 2019, published 2024).

A short description of series [1]: Confirmation of temperature responsive property of ionic liquid (lower critical solution temperature by absorbance at 450 nm). Type of series: physicochemical. The settings on record: absorbance 450 nm, heating 20° C.→95° C. (0.5° C./minute). The method, then:
(§1) Whether an ionic liquid is a temperature-responsive ionic liquid having a lower critical solution temperature (LCST-type temperature-responsive ionic liquid) is determined by measuring the absorbance of the liquid at a wavelength within a visible light region while gradually increasing the temperature and observing white turbidity, in other words, an abrupt increase in absorbance at a certain temperature caused by an increase in degree of hydrophobicity. The specific procedure is as follows. First, a mixture of an ionic liquid and water is prepared and the layer state at room temperature is observed. Then, the mixture is placed in a refrigerator of 4° C., sufficiently stirred and allowed to stand still for one hour. The state of the mixture is observed. If the layer state of the ionic liquid-water mixture at room temperature is the same as the layer state at 4° C., the mixture is increased in temperature at a rate of 0.5° C./minute within the range of 20° C. to 95° C. and the absorbance of the mixture is measured at 450 nm. Based on a change in absorbance, whether the ionic liquid thus measured is LCST-type temperature-responsive ionic liquid or not can be checked.
The obtained data of absorbance change can be analyzed by differential calculus according to Tm (nucleic acid melting temperature) analysis program to obtain the lower critical solution temperature. In contrast, if the phase state of the ionic liquid-water mixture at room temperature is different from the state at 4° C., the mixture is increased in temperature at a rate of 0.5° C./minute within the range of 5° C. to 40° C. and the absorbance of the mixture is measured at 450 nm. Based on a change in absorbance, whether the ionic liquid thus measured is LCST-type temperature-responsive ionic liquid or not can be checked.
(§2) More specifically, the temperature responsive property was examined by measuring a absorbance at 450 nm at different temperatures in the following measurement conditions to obtain a change in absorbance.
(0.5° C./minute) • Analysis method: calculation by differential calculus using Tm (nucleic acid melting temperature) analysis program
(§3) (0.5° C./minute) • Analysis method: calculation by differential calculus using Tm (nucleic acid melting temperature) analysis program.
as §3

The conditions of series [2]: cited from earlier work.
For series [3], the system named is human cultured epidermal model (LabCyte EPI-MODEL12). The settings on record: pregabalin 10 mg/mL in 100 mmol/L aqueous solution or dispersion of the ionic liquid, 300 μL donor, 37° C., control in water 252. The method, then: A human cultured epidermal model (LabCyte EPI-MODEL12, Japan Tissue Engineering Co., Ltd.) was used. The phase on the stratum corneum side of the model was defined as a donor phase, whereas the phase on the stratum basal side of the model was defined as a receptor phase. Whether a temperature-responsive ionic liquid enhances the permeation of pregabalin from the donor phase to the receptor phase was examined. The test was carried out in an incubator of 37° C. Pregabalin was dissolved in water, or a 100 mmol/L aqueous solution or water dispersion of a temperature-responsive ionic liquid to a concentration of 10 mg/mL. Each solution (300 μL) was added to the donor phase. Twenty-four hours later, a receptor fluid was sampled and analyzed by LC-MS/MS to obtain the amount of pregabalin permeated. The Hanks' balanced salt solution was used as the receptor fluid.

Series [4] shares this test system. The following applies: 37° C. As to the method:
A human cultured epidermal model (LabCyte EPI-MODEL12, Japan Tissue Engineering Co., Ltd.) was used. The phase on the stratum corneum side of the model was defined as a donor phase, whereas the phase on the stratum basal side of the model was defined as a receptor phase. […] The test was carried out in an incubator of 37° C. […] Each solution (300 μL) was added to the donor phase. […] The Hanks' balanced salt solution was used as the receptor fluid.

For series [5] the following is noted: mixture of ionic liquid and water as obtained in the synthesis. The method, then: as §1, §2
Where [6] appears, read: ionic liquid-water sample, UV1650PC, initial waiting 10 minutes.
The mark [7] stands for this setting: V-750, initial waiting 5 minutes.

With `CCCC[P+](CCCC)(CCCC)CCCC.O=S(=O)([O-])c1ccccc1` [Reference Example 2-sample, tetrabutylphosphonium benzenesulfonate], in series [1] (setting [6]), the “LCST (lower critical solution temperature)” value was “None”.

With `CCc1cccc2c3c([nH]c12)C(CC)(CC(=O)O)OCC3` (stereo not drawn) [etodolac], the “solubility of etodolac to water” value in series [2] was 110 µg/mL. On to `CCCC[P+](CCCC)(CCCC)CCCC.O=C([O-])c1ccc(C(F)(F)F)cc1O` [Synthesis Example 1-sample, tetrabutylphosphonium 4-(trifluoromethyl)salicylate], for which, in series [1] (setting [6]), the “LCST (lower critical solution temperature)” value is 23.6 °C. The “24-hour Cumulative permeation amount of pregabalin” value in series [3] is listed as 3030 μg/cm^2. The “24-hour Cumulative permeation amount of lidocaine hydrochloride monohydrate” value in series [4] (lidocaine hydrochloride monohydrate 10 mg/mL in 100 mmol/L aqueous solution or dispersion of the ionic liquid, control in water 308) is listed as 1100 μg/cm^2. Also, the “24-hour Cumulative permeation amount of tramadol hydrochloride” value in series [4] (tramadol hydrochloride 10 mg/mL in 100 mmol/L aqueous solution or dispersion of the ionic liquid, control in water 300) amounted to 2510 μg/cm^2. Also, the “compatibility with water at room temperature” value in series [5] is listed as “separated from water at room temperature”. With `CCCCCCCCCC(=O)O.C[N+](C)(C)CCO` [Reference Example 3-sample, cholinium decanoate, reference compound], the “LCST (lower critical solution temperature)” value in series [1] (setting [7]) is listed as “None”. For the same compound, in series [3], the “24-hour Cumulative permeation amount of pregabalin” value is recorded as 354 μg/cm^2.

Turning to “diisopropanolammonium decanoate [Reference Example 4-sample]”, the “LCST (lower critical solution temperature)” value in series [1] (setting [7]) is “None”. In the case of `CCCC[P+](CCCC)(CCCC)CCCC.O=S(=O)([O-])c1ccc(Cl)cc1` [Synthesis Example 12-sample, tetrabutylphosphonium 4-chlorobenzenesulfonate], the “LCST (lower critical solution temperature)” value in series [1] (setting [6]) was determined as 25.6 °C. The “compatibility with water at room temperature” value in series [5] is given as “separated from water at room temperature”. The like results for `CCCC[P+](CCCC)(CCCC)CCCC.Cc1ccc(S(=O)(=O)[O-])cc1` [Synthesis Example 16-sample, tetrabutylphosphonium p-toluenesulfonate] were, in that order, 54.6 °C and “compatible with water at room temperature”. Take `C[N+](C)(C)CCO.O=C([O-])c1ccccc1O` [Reference Example 5-sample, cholinium salicylate]: the “LCST (lower critical solution temperature)” value in series [1] (setting [7]) is recorded as “None”.
